# In US12459891B2, “1-[1-(4-benzyloxy-3,5-difluoro-benzoyl)-4-fluoro-pyrrolidine-2-carbonyl]-pyrrolidine-2-carbonitrile” (ACCURE THERAPEUTICS, S.L., priority 2020, dated 2025):
# Assays:
# [1] = system: POP; conditions: non-competitive POP inhibitor; read-out: IC50 (POP inhibition); cited from earlier work
# [2] = system: MK-801-treated mice; assay: Novel object recognition (NOR) task, MK-801-induced cognitive deficit; type: in vivo, male C57/Bl6 mice; conditions: mean ± s.e.m.
Compound,IC50 [1],"% discrimination index ([2]; MK 801 0.2 mg/kg sc alone (vehicle ip), intraperitoneal experiment)","% discrimination index ([2]; MK 801 0.2 mg/kg sc alone (vehicle po), oral experiment)"
O=C(/C=C/c1ccc(O)c(O)c1)O[C@H](Cc1ccc(O)c(O)c1)C(=O)O [rosmarinic acid],63.7 µM,,
"C[C@]12N[C@H](Cc3ccccc31)c1ccccc12 [MK 801, Dizocilpine]",,21 ± 4.7%,16.6 ± 5.9%
